Legend:
Type in all cases: cell-based
[1] = system: Phospho-Rb (Ser807/811); experiment: Phospho-Retinoblastoma (pRB) Cellular Assay; settings: Homo sapiens, OVCAR-3, NIH OVCAR3 cells, 24 hours; for IC50: concentration giving 50% response; for Emax: maximum response, reference compound at 10 μM = 100%, read-out: pRB Ymax
Method: Phospho-Retinoblastoma (pRB) Cellular Assay
NIH OVCAR3 (HTB-161, American Type Culture Collection, Manassas VA) cells were grown up to passage 10 in culture media made up of RPMI (11835-030 Gibco, Grand Island NY), 20% HI FBS (16140-071, Gibco, Grand Island NY), and 0.01 mg/mL insulin from bovine pancreas (I6634-1G, Sigma Aldrich, St. Louis, MO).
The cells were seeded in a 384-well CulturPlate (6007688, Perkin Elmer, Waltham MA) at a density of 10,000 cells/well in 20 μL of the above culture media and incubated overnight at 37° C. and 5% CO2.
The next day, cells were treated using an Echo 650 (Beckman Coulter, Indianapolis IN) acoustic dispenser with 40 nL of compounds dissolved in DMSO at the appropriate serial dilutions (10 mM to […]). Cells were then incubated for 24 hours as above.
After 24 hours elapsed, media was removed from each well and shortly after 20 μL of the following mix was added: 12 μL deionized water, 4 μL lysis buffer, 4 μL of reconstituted antibody mix, and 1:100 phosphatase inhibitor. These components belong to the Phospho-Rb (Ser807/811) Cellular Kit (64RBS807PEY, Perkin Elmer, Waltham MA).
Plates were sealed and incubated away from light at room temperature for at least 4 hours before reading them on an EnVision plate reader (Perkin Elmer, Waltham MA) according to the kit manufacturer's protocol. The reference compound, N-(5-{[(5-tert-butyl-1,3-oxazol-2-yl)methyl]sulfanyl}-1,3-thiazol-2-yl)piperidine-4-carboxamide, at 10 μM was used to define 100% response. Assay results for each compound were reported as IC50, the concentration giving 50% response, and Ymax, the maximum response observed with the compound.

[2] = molecular target: GSPT1 (Homo sapiens, UniProt P15170+Q96SW2); experiment: GSPT1 Cellular Degradation Assay (DF15-GSPT1-ePL); set-up: expressed in transfected cells; settings: DF15-GSPT1-ePL cells, 20 hours
Source text: DF15-GSPT1-ePL was used for intracellular GSPT1 protein degradation detection in form of chemiluminescent signal, which was built on a human DF15 cell line (CVCL_Y429) with conditional co-expression of chimeric GSPT1 (target) and ePL/donor (enhanced ProLabel® by DiscoverX for enzyme fragment complementation with donor-acceptor pairing). The cells used the culture medium in two arrangements for assay and maintenance. During assay, it used Core-RPMI 1640 medium with 10% Fetal Bovine Serum (Heat Inactivated) and 1× Penicillin/Streptomycin; and during passage maintenance, used added ingredients: 0.1 mM NEAA, 1 mM sodium pyruvate, 25 mM Hepes, 0.1% Pluronic F-68, 1× Glutamin, 4 μg/mL Blasticidin (selection agent). Detection was performed on a 1536 well tissue culture plate (Corning #3727) with cells seeded in 3.5 μL core-RPMI 1640 at density of 0.25 million/mL after the pre-titrated test compounds in DMSO on ECHO plate were dispensed onto the assay plate by use of ECHO (liquid handing system via acoustic energy from Labcyte). Assay incubation lasted 20 hours in 37° C. incubator with 5% CO2; then followed by 30 minutes of plate-cooling at room temperature; then detection-reagent-mix was added in 3.5 μL/well with pre-defined proportion of enzyme acceptor, substrate, and lysis buffer. Plate signal reading for luminescence on an EnVision plate reader (PerkinElmer) was conducted after 60 minutes of former step at room temperature. Raw data was collected and processed with Dotmatics (data analyzer) for test compound's potency values. The reference compound, 3-[5-(3,6-dimethoxyisoquinolin-1-yl)-1-oxo-2,3-dihydro-1H-isoindol-2-yl]piperidine-2,6-dione, at […] was used to define 75% response. Assay results for each compound were reported as DC50, the concentration giving 50% response, and Dmax, the maximum response observed with the compound.

[3] = molecular target: Cyclin E1 (Homo sapiens, UniProt P24864+Q96SW2); experiment: Cyclin E1 Cellular Degradation Assay (MSD); set-up: endogenous in cells; host or cells: OVCAR3; settings: for DC50 / Dmax: Cyclin E1 cellular degradation; for Dmax: maximum degradation; for Ratio of GSPT1 DC50/Cyclin E1 DC50: selectivity for degradation of Cyclin E1 over GSPT1
Method: Culturing cells: On Day 0, OVCAR3 cells were plated at 15,000 cells/well in 40 μL of culture medium (RPMI1640, 20% FBS, 0.01 insulin, 1% Anti/Anti) in a 384 well cell culture plate. Cell cultures were incubated for 24 hours at 37° C. and 5% CO2.
Coating MSD plates: On Day 1, rabbit anti-CCNE1 antibody (Abcam ab33911, 1 μg/mL in DPBS, […]) was dispensed to a Meso Scale Discovery plate (MSD L21XA). The MSD plate was spun briefly to ensure the solution coated the bottom of the well and incubated overnight at 4° C. On Day 2, the plate was washed 3 times with TBS +0.2% TWEEN, blocked for 1 hour with 3% MSD Blocker A (MSD R93AA-1, 30 μL/well), then washed again 3 times with TBS+0.2% TWEEN.
Treating and lysing cells: On Day 1, compounds of interest were dispensed into the cell cultures by acoustic dispensing technology. The cell cultures were then spun at 400 g for 4 minutes to disperse the compounds and incubated at 37° C. and 5% CO2 for 24 hours. After incubation, 40 μL of DPBS was added to the cell cultures to dilute the media. All liquid was gently discarded and immediately replaced with 30 μL of lysis buffer (MSD Tris Lysis buffer (MSD R60TX-2), Halt Protease inhibitor (ThermoFisher 78438), Phosphatase Inhibitor II (Sigma-Aldrich P5726), Phosphatase Inhibitor III (Sigma-Aldrich P0044), 0.02M PMSF (Sigma-Aldrich 7626), 0.1% SDS (VWR E719-100ML)). The plate was then sealed, shaken at 300 rpm at room temperature for 5 minutes, and freeze-thawed for optimum cell lysis.
Collecting data: After thawing, 25 μL of lysate was transferred to a coated MSD plate. The plate was then sealed and shaken at 300 rpm overnight in 4° C. On Day 3, the MSD plate was washed 3 times with TBS+0.2% TWEEN. Mouse anti-CCNE1 antibody (Abcam ab238081, 0.5 μg/mL in 1% MSD Blocker A, 10 μL/well) dispensed to the MSD plate, which was then sealed and shaken at room temperature for 3 hours. After the first antibody incubation, the plate was washed 3 times with TBS+0.2% TWEEN, then goat anti-mouse Sulfo-Tag antibody (MSD R32AC, 1 μg/mL in 1% MSD Blocker A, 10 μL/well) was dispensed to the MSD plate. The plate was sealed again and shaken at room temperature for 1 hour, then washed 3 times with TBS+0.2% TWEEN. After the final wash, 35 μL of 1× Read Buffer (MSD R92TC-1) was added to each well and the data was captured using the MSD plate reader. The reference compound, [2-(2,6-dioxopiperidin-3-yl)-4-methoxy-3-oxo-2,3-dihydro-1H-isoindol-5-yl]methyl N-[4-(3,4-difluorophenoxy)phenyl]carbamate, at […] was used to define […]. Assay results for each compound were reported as DC50, the concentration giving 50% response, and Dmax, the maximum response observed with the compound.

Cyclin E1, sequence (P24864 whole entry): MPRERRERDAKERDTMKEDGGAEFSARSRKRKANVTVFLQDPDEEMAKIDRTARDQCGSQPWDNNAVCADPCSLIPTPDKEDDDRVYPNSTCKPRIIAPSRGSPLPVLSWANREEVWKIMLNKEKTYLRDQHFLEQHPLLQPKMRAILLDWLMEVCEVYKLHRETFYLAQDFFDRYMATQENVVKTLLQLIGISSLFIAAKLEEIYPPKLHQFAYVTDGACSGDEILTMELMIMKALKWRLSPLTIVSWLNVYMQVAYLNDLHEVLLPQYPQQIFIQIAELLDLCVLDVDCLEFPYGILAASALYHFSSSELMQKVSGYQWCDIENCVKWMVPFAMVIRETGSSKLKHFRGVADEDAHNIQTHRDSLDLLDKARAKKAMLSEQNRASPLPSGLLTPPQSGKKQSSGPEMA
Cyclin E1, sequence (Q96SW2 whole entry): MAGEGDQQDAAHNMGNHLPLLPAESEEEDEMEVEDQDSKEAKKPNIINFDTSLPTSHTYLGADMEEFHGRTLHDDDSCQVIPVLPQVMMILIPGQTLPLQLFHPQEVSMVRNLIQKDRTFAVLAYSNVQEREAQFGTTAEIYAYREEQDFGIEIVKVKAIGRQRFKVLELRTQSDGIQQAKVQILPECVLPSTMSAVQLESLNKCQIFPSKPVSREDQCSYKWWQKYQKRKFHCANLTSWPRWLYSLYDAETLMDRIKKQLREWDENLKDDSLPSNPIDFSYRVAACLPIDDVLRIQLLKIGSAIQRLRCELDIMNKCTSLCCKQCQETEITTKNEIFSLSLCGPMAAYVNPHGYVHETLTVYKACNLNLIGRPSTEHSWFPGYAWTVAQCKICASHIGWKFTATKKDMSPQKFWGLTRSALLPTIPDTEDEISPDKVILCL
Cyclin E1, sequence (Q16531 whole entry partner): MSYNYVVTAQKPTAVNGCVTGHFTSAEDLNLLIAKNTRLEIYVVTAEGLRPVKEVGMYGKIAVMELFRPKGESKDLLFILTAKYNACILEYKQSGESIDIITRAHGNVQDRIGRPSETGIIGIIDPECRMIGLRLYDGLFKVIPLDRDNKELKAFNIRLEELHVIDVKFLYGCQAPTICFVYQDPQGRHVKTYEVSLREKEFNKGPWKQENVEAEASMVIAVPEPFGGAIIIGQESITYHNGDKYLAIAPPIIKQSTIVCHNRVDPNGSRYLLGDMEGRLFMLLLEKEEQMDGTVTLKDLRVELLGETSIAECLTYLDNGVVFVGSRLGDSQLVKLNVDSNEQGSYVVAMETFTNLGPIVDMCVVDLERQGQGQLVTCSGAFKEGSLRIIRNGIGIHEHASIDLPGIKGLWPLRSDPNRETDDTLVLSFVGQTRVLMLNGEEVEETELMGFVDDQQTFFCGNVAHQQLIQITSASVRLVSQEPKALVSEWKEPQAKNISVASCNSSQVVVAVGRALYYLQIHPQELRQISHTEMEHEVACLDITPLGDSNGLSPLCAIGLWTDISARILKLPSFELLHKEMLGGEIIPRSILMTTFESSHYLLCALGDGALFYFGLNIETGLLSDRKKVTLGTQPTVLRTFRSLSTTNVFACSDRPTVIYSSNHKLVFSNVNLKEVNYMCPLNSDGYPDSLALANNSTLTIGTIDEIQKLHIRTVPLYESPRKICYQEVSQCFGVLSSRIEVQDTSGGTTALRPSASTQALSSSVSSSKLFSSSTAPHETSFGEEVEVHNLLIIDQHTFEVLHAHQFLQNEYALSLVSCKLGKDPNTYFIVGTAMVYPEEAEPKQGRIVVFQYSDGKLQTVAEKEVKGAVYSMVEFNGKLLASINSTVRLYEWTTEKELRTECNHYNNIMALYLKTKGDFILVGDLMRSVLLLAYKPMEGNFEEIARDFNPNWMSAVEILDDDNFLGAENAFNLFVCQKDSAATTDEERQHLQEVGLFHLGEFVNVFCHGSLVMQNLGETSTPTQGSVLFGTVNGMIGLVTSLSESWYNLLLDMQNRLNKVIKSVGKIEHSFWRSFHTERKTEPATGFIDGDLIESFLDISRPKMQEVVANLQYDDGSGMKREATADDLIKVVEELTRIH
GSPT1, sequence (P15170 whole entry, the tested form may be a part): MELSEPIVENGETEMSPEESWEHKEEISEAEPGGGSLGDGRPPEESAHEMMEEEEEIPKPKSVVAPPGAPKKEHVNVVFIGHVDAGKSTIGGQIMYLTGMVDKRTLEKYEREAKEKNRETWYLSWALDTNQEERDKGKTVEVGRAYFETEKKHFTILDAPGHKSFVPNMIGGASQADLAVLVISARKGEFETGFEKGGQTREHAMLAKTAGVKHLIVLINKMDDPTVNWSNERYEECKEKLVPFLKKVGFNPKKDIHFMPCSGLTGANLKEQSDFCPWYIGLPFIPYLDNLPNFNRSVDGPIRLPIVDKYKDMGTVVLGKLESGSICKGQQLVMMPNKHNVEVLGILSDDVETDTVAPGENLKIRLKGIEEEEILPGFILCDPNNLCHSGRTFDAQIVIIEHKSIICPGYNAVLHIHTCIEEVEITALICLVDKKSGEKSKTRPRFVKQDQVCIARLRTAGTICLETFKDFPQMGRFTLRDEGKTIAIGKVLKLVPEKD
GSPT1, sequence (Q96SW2 whole entry, the tested form may be a part): as the sequence (Q96SW2 whole entry) above
GSPT1, sequence (Q16531 whole entry partner, the tested form may be a part): as the sequence (Q16531 whole entry partner) above

| SMILES | IC50 [1] | Emax [1] | DC50 [2] | Dmax [2] | DC50 [3] | Dmax [3] | Ratio of GSPT1 DC50/Cyclin E1 DC50 [3] |
| --- | --- | --- | --- | --- | --- | --- | --- |
| COc1c(COC(=O)Nc2ccc(Oc3ccc(Cl)c(Cl)c3)cc2F)ccc2c1C(=O)N(C1CCC(=O)NC1=O)C2 (stereo not shown) [Example 117, [2-(2,6-dioxopiperidin-3-yl)-4-methoxy-3-oxo-2,3-dihydro-1H-isoindol-5-yl]methyl N-[4-(3,4-dichlorophenoxy)-2-fluorophenyl]carbamate] | 115 nM | 108% | > 14000 nM | 28% | 104 nM | 108% | >135 |
| COc1c(COC(=O)Nc2ccc(C3(c4ccccc4)CC3)cc2)ccc2c1C(=O)N(C1CCC(=O)NC1=O)C2 (stereo not shown) [Example 7, [2-(2,6-dioxopiperidin-3-yl)-4-methoxy-3-oxo-2,3-dihydro-1H-isoindol-5-yl]methyl N-[4-(1-phenylcyclopropyl)phenyl]carbamate] | 1780 nM | 10% | > 14000 nM | 21% | 203 nM | 90% | >69 |
| COc1cc(Oc2ccc(F)cc2F)ccc1NC(=O)OCc1ccc2c(c1OC)C(=O)N(C1CCC(=O)NC1=O)C2 (stereo not shown) [Example 49, [2-(2,6-dioxopiperidin-3-yl)-4-methoxy-3-oxo-2,3-dihydro-1H-isoindol-5-yl]methyl N-[4-(2,4-difluorophenoxy)-2-methoxyphenyl]carbamate] | 171 nM | 116% | > 14000 nM | 24% | 77 nM | 106% | >181 |
| O=C1CCC(N2Cc3ccc(COC(=O)Nc4ccc(Oc5cccc(F)c5)cc4)c(Oc4ccccc4)c3C2=O)C(=O)N1 (stereo not shown) [Example 64, [2-(2,6-dioxopiperidin-3-yl)-3-oxo-4-phenoxy-2,3-dihydro-1H-isoindol-5-yl]methyl N-[4-(3-fluorophenoxy)phenyl]carbamate] | 83 nM | 111% | > 14000 nM | 22% | 133 nM | 109% | >105 |
| COc1c(COC(=O)Nc2ccc(Oc3cccc(F)c3F)cc2)ccc2c1C(=O)N(C1CCC(=O)NC1=O)C2 (stereo not shown) [Example 110, [2-(2,6-dioxopiperidin-3-yl)-4-methoxy-3-oxo-2,3-dihydro-1H-isoindol-5-yl]methyl N-[4-(2,3-difluorophenoxy)phenyl]carbamate] | 72 nM | 99% | > 14000 nM | 20% | 173 nM | 106% | >81 |
| COc1c(COC(=O)Nc2ccc(Cc3cccc(F)c3)cc2F)ccc2c1C(=O)N(C1CCC(=O)NC1=O)C2 (stereo not shown) [Example 20, [2-(2,6-dioxopiperidin-3-yl)-4-methoxy-3-oxo-2,3-dihydro-1H-isoindol-5-yl]methyl N-{2-fluoro-4-[(3-fluorophenyl)methyl]phenyl}carbamate] | 440 nM | 103% | > 14000 nM | 11% | 96 nM | 101% | >146 |
| O=C1CCC(N2Cc3ccc(COC(=O)Nc4ccc(Oc5ccc(F)cc5Cl)cc4)c(O[C@@H]4CCOC4)c3C2=O)C(=O)N1 (stereo partly drawn) [Example 155, [2-(2,6-dioxopiperidin-3-yl)-3-oxo-4-[(3R)-oxolan-3-yloxy]-2,3-dihydro-1H-isoindol-5-yl]methyl N-[4-(2-chloro-4-fluorophenoxy)phenyl]carbamate] | 188 nM | 116% |  |  | 176 nM | 100% |  |
| O=C1CCC(N2Cc3ccc(COC(=O)Nc4ccc(Oc5ccc(F)cc5F)cc4)c(O[C@@H]4CCOC4)c3C2=O)C(=O)N1 (stereo partly drawn) [Example 157, [2-(2,6-dioxopiperidin-3-yl)-3-oxo-4-[(3R)-oxolan-3-yloxy]-2,3-dihydro-1H-isoindol-5-yl]methyl N-[4-(2,4-difluorophenoxy)phenyl]carbamate] | 65 nM | 119% |  |  | 116 nM | 99% |  |
| O=C1CCC(N2Cc3ccc(COC(=O)Nc4ccc(Oc5cccc(Cl)c5)cc4)c(O[C@@H]4CCOC4)c3C2=O)C(=O)N1 (stereo partly drawn) [Example 158, [2-(2,6-dioxopiperidin-3-yl)-3-oxo-4-[(3R)-oxolan-3-yloxy]-2,3-dihydro-1H-isoindol-5-yl]methyl N-[4-(3-chlorophenoxy)phenyl]carbamate] | 175 nM | 109% |  |  | 74 nM | 104% |  |
| O=C1CCC(N2Cc3ccc(COC(=O)Nc4ccc(Oc5cccc(F)c5F)cc4)c(O[C@@H]4CCOC4)c3C2=O)C(=O)N1 (stereo partly drawn) [Example 156, [2-(2,6-dioxopiperidin-3-yl)-3-oxo-4-[(3R)-oxolan-3-yloxy]-2,3-dihydro-1H-isoindol-5-yl]methyl N-[4-(2,3-difluorophenoxy)phenyl]carbamate] | 39 nM | 116% |  |  | 101 nM | 103% |  |
